Legend:
in vitro [1] = conditions: mouse, liver microsomes
in vitro [2] = conditions: human, liver microsomes

## O=C1N[C@H](c2cncc(C#Cc3ccccc3)c2)[C@@H](c2cccc(F)c2)O1
In vitro [1]
  remaining at 10 min: 71%
In vitro [2]
  remaining at 10 min: 76%

## O=C1N[C@H](c2cncc(C#CC3CC(F)(F)C3)c2)[C@@H](c2ccc(F)cc2F)O1
In vitro [1]
  remaining at 10 min: 84%
In vitro [2]
  remaining at 10 min: 100%

## O=C1N[C@H](c2cncc(C#C[C@H]3C[C@H](O)C3)c2)[C@@H](c2cccc(F)c2)O1
In vitro [1]
  remaining at 10 min: 74%
In vitro [2]
  remaining at 10 min: 100%

## O=C1N[C@H](c2cncc(C#CC3CCOC3)c2)[C@@H](c2cccc(F)c2)O1 (stereo not given in full)
In vitro [1]
  remaining at 10 min: 63%
In vitro [2]
  remaining at 10 min: 93%

## O=C1N[C@H](c2cncc(C#C[C@H]3C[C@H](F)C3)c2)[C@@H](c2cccc(F)c2)O1
In vitro [1]
  remaining at 10 min: 37%
In vitro [2]
  remaining at 10 min: 81%

## O=C1N[C@H](c2cncc(C#C[C@H]3C[C@@H](F)C3)c2)[C@@H](c2cccc(F)c2)O1
In vitro [1]
  remaining at 10 min: 57%
In vitro [2]
  remaining at 10 min: 83%

## C[C@]1(O)C[C@H](C#Cc2cncc([C@H]3NC(=O)O[C@@H]3c3cccc(F)c3)c2)C1
In vitro [1]
  remaining at 10 min: 78%
In vitro [2]
  remaining at 10 min: 88%

## O=C1N[C@H](c2cncc(C#CC3CC3)c2)[C@@H](c2cccc(F)c2)O1
In vitro [1]
  remaining at 10 min: 69%
In vitro [2]
  remaining at 10 min: 81%

## O=C1N[C@H](c2cncc(C#C[C@H]3C[C@@H](O)C3)c2)[C@@H](c2cccc(F)c2)O1
In vitro [1]
  remaining at 10 min: 51%
In vitro [2]
  remaining at 10 min: 100%

## C[C@]1(O)C[C@@H](C#Cc2cncc([C@H]3NC(=O)O[C@@H]3c3cccc(F)c3)c2)C1
In vitro [1]
  remaining at 10 min: 81%
In vitro [2]
  remaining at 10 min: 95%
